Legend:
WEE1 = target: T1, WEE1 (Homo sapiens, UniProt P30291+Q96SW2); assay: WEE1-ePL degradation assay (LentiX-WEE1-ePL-GSPT1-ND cells, InCELL Hunter luminescence, 4 h); assay type: cell-based; conditions: 293T-LentiX WEE1-ePL cells; for 293T-LentiX WEE1-ePL Degradation 4 hr (Ymin): lower limit of the fit (0 = luciferase inhibitor, Ymax = DMSO control); for DC50: read-out: 293T-LentiX WEE1-ePL Degradation 4 hr (EC50)
T1 construct: C-terminal ePL-tagged (DiscoverX, Fremont, CA) full-length WEE1 expression construct; expressed in transfected cells; host or cells: LentiX-HEK293T (Invitrogen), lentiviral transduction; co-expressing GSPT1-GN (G576N, lacking the first 158 amino acids)
Description: To generate LentiX-WEE1-ePL-GSPT1-ND cells for the WEE1 degradation assay, LentiX-HEK293T (Invitrogen) were transduced by lentivirus with a C-terminal ePL-tagged (DiscoverX, Fremont, CA) full-length WEE1 expression construct. […] Cells were selected and maintained in complete DMEM media (DMEM, 10% Heat Inactivated FBS, 400 μg/mL Geneticin, and 1 μg/mL puromycin at 37 C and 5% CO2). Cells were passaged every 3-4 days by reseeding 1×10^6 cells in a T150 flask.
Cells were dispensed into 384-well white plates (Corning #3570, NY) that were pre-spotted with compounds using an acoustic dispenser (Echo acoustic transfer system, Beckman Coulter Life Sciences, Carlsbad, CA) as a 10-point dose-response curve with a 3-fold dilution starting at either 1 uM or 10 uM and including a DMSO control. Twenty-five microliters of media containing 2500 cells for LentiX-oeWEE1-ePL was dispensed per well. Assay plates were incubated at 37° C. with 5% CO2 for four hours (WEE1) After incubation, 25 μL of the InCELL Hunter™ Detection Reagent Working Solution (DiscoverX, Fremont, CA) was added to each well and incubated at room temperature for 30 minutes protected from light. After 30 minutes, luminescence was read on a PHERAstar luminometer (Cary, NC).
To determine the half-maximal effective concentration (EC50) values for WEE1-ePL degradation, a four parameter logistic model was used: (Sigmoidal Dose-Response Model) (FIT=(A+((B−A)/1+((C/x)^D)))) where C is the inflection point (EC50), D is the Hill slope, and A and B are the low and high limits of the fit respectively). The lower limit of the fit (value A) is referred to as Ymin. […] The maximum limit constraint, Ymax, is similarly derived using DMSO control. The curves were processed and evaluated using Activity Base (IDBS, Alameda, CA).

MKN45 cells = assay: MKN45 cell proliferation assay (Cell-Titer-Glo, 120 h); assay type: cell-based; conditions: for EC50: Homo sapiens, MKN-45, 120 h, Cell-Titer-Glo, growth inhibition, read-out: MKN45 Cell Prolif. 120 hr (EC50); for MKN45 Cell Prolif. 120 hr (Ymin-Obs): minimal percent of DMSO control observed in the concentrations tested
Description: MKN45 cells were obtained from Celgene internal cell banks and cultured in RPMI complete media (RPMI-1640, 1× Penicillin/Streptomycin, 1× glutamine, 1× Sodium Pyruvate, Non-essential Amino Acids, 10% Fetal Bovine serum, all component from Thermo-Fisher). Compounds were dispensed into 384-well plates using an HP DE300 compound printer in triplicate with 8 compounds on each plate. For each compound, a 10-point dose response was printed at half-log dilutions starting at either 1 uM or 10 uM. The DMSO concentration was kept constant for a final assay concentration of 0.1% per well assuming 50 ul final media volume. Compound plates were sealed and frozen at −20 C until use.
For each assay batch, compound plates were thawed and allowed to reach room temperature, and cells were seeded at 400 cells per well in 50 ul complete RPMI media. After 120 hours of incubation at 37 C and 5% CO2, cells were lysed by addition of 25 μL of Cell-Titer-Glo Reagent (Promega Corporation, Madison, WI), as per manufacturer's instructions, protected from light, shaken for 45 minutes, and total luminescence read by a Perkin Elmer Envision plate reader. Total luminescence signal is linearly correlated with cell number remaining in the well.
Luminescence data was processed per plate by subtracting reagent-only “blank” well luminescence from all measured values and calculating a percent of DMSO control value for each treatment well. Then, to determine the half-maximal effective concentration (EC50) values for cell growth inhibition, a four parameter logistic model was fit to the data for each DMSO-normalized compound: Sigmoidal Dose-Response Model: (FIT=(A+((B−A)/1+((C/x)^D)))) where C is the inflection point (EC50), D is the Hill slope, and A and B are the low and high limits of the fit respectively. The lower limit of the fit (value A) is referred to as Ymin-calculated. The minimal percent of DMSO control that is observed in the concentrations tested for each compound is labeled as “Ymin-obs”, and was recorded and reported in the tables. Sigmoidal fit curves were processed and evaluated using Activity Base (IDBS, Alameda, CA).

Compound | 293T-LentiX WEE1-ePL Degradation 4 hr (Ymin) (WEE1) | DC50 (WEE1) [nM] | EC50 (MKN45 cells) [nM] | MKN45 Cell Prolif. 120 hr (Ymin-Obs) (MKN45 cells)
O=C1CCC(N2Cc3cc(O[C@H]4CCN(Cc5ccc6nc(N7C[C@@H]8C9CCC(O9)[C@@H]8C7)ccc6c5)C4)ccc3C2=O)C(=O)N1 (stereo partly shown) | 38 | 3.19 | 3.83 | 10.93
O=C1CCC(N2Cc3cc(O[C@H]4CCN(Cc5ccc6nc(N7C[C@@H]8C9CCC(O9)[C@@H]8C7)ncc6c5)C4)ccc3C2=O)C(=O)N1 (stereo partly shown) | 35 | 9.25 | 10.5 | 12.82
O=C1CC[C@H](N2Cc3cc(O[C@H]4CCN(Cc5ccc6nc([C@@H]7CCOC7)ncc6c5)C4)ccc3C2=O)C(=O)N1 | 33 | 18 | 13 | 9.409
O=C1CCC(N2Cc3cc(O[C@@H]4CCN(Cc5ccc6nc([C@@H]7CCOC7)ncc6c5)C4)ccc3C2=O)C(=O)N1 (relative stereo) [rel-3-(1-oxo-5-{[(3R)-1-({2-[(3S)-oxolan-3-yl]quinazolin-6-yl}methyl)pyrrolidin-3-yl]oxy}-2,3-dihydro-1H-isoindol-2-yl)piperidine-2,6-dione] | 34 | 21.8 | 18.5 | 7.06
CC(c1cnc2ccccc2c1)N1CC[C@@H](Oc2ccc3c(c2)CN(C2CCC(=O)NC2=O)C3=O)C1 (stereo in doubt) [rel-3-(1-oxo-5-{[(3R)-1-[1-(quinolin-3-yl)ethyl]pyrrolidin-3-yl]oxy}-2,3-dihydro-1H-isoindol-2-yl)piperidine-2,6-dione] | 50.89 | 83.4 | > 10000 | 76.71
O=C1CCC(N2Cc3cc(O[C@@H]4CCN(Cc5cnc6ccccc6c5)C4)ccc3C2=O)C(=O)N1 (stereo in doubt) [rel-3-(1-oxo-5-{[(3R)-1-[(quinolin-3-yl)methyl]pyrrolidin-3-yl]oxy}-2,3-dihydro-1H-isoindol-2-yl)piperidine-2,6-dione] | 26.82 | 6.57 | 57 | 11.39
O=C1CCC(N2C(=O)c3ccc(O[C@H]4CCN(Cc5cnc6ccccc6c5)C4)cc3C2=O)C(=O)N1 (stereo partly drawn) [2-(2,6-dioxopiperidin-3-yl)-5-{[(3S)-1-[(quinolin-3-yl)methyl]pyrrolidin-3-yl]oxy}-2,3-dihydro-1H-isoindole-1,3-dione] | 30.205 | 32.9 | 621 | 15.39
O=C1CCC(N2C(=O)c3ccc(O[C@H]4CCN(Cc5ccnc6ccccc56)C4)cc3C2=O)C(=O)N1 (stereo partly drawn) [2-(2,6-dioxopiperidin-3-yl)-5-{[(3S)-1-[(quinolin-4-yl)methyl]pyrrolidin-3-yl]oxy}-2,3-dihydro-1H-isoindole-1,3-dione] | 38.05 | 1230 | 2510 | 48.18
O=C1CCC(N2C(=O)c3ccc(O[C@H]4CCN(Cc5cccc6ncccc56)C4)cc3C2=O)C(=O)N1 (stereo partly drawn) [2-(2,6-dioxopiperidin-3-yl)-5-{[(3S)-1-[(quinolin-5-yl)methyl]pyrrolidin-3-yl]oxy}-2,3-dihydro-1H-isoindole-1,3-dione] | 30.52 | 79.2 | 2230 | 44.93
O=C1CCC(N2C(=O)c3ccc(O[C@H]4CCN(Cc5ccc6ncccc6c5)C4)cc3C2=O)C(=O)N1 (stereo partly drawn) [2-(2,6-dioxopiperidin-3-yl)-5-{[(3S)-1-[(quinolin-6-yl)methyl]pyrrolidin-3-yl]oxy}-2,3-dihydro-1H-isoindole-1,3-dione] | 29.65 | 43.4 | 1030 | 21.24
O=C1CCC(N2Cc3cc(O[C@H]4CCN(Cc5ccc6nc([C@H]7C[C@H](O)C7)ccc6c5)C4)ccc3C2=O)C(=O)N1 (stereo partly drawn) [3-(1-oxo-5-{[(3S)-1-({2-[(1r,3r)-3-hydroxycyclobutyl]quinolin-6-yl}methyl)pyrrolidin-3-yl]oxy}-2,3-dihydro-1H-isoindol-2-yl)piperidine-2,6-dione] | 32 | 3.8 | 5.02 | 7.85
COC[C@H]1CC[C@H](c2ccc3cc(CN4CC[C@H](Oc5ccc6c(c5)CN(C5CCC(=O)NC5=O)C6=O)C4)ccc3n2)CC1 (stereo partly drawn) [3-(1-oxo-5-{[(3S)-1-({2-[(1r,4r)-4-(methoxymethyl)cyclohexyl]quinolin-6-yl}methyl)pyrrolidin-3-yl]oxy}-2,3-dihydro-1H-isoindol-2-yl)piperidine-2,6-dione] | 33.24 | 1.57 | 2.56 | 14.13
O=C1CCC(N2Cc3cc(O[C@H]4CCN(Cc5ccc6nc([C@H]7CC[C@H](O)CC7)ccc6c5)C4)ccc3C2=O)C(=O)N1 (stereo partly drawn) [3-(1-oxo-5-{[(3S)-1-({2-[(1r,4r)-4-hydroxycyclohexyl]quinolin-6-yl}methyl)pyrrolidin-3-yl]oxy}-2,3-dihydro-1H-isoindol-2-yl)piperidine-2,6-dione] | 30 | 4.67 | 2.79 | 7.3325
CO[C@H]1CC[C@H](c2ccc3cc(CN4CC[C@H](Oc5ccc6c(c5)CN(C5CCC(=O)NC5=O)C6=O)C4)ccc3n2)CC1 (stereo partly drawn) [3-(1-oxo-5-{[(3S)-1-({2-[(1r,4r)-4-methoxycyclohexyl]quinolin-6-yl}methyl)pyrrolidin-3-yl]oxy}-2,3-dihydro-1H-isoindol-2-yl)piperidine-2,6-dione] | 26 | 1.88 | 1.29 | 11.035
O=C1CCC(N2Cc3cc(O[C@H]4CCN(Cc5ccc6nc([C@H]7C[C@@H](O)C7)ccc6c5)C4)ccc3C2=O)C(=O)N1 (stereo partly drawn) [3-(1-oxo-5-{[(3S)-1-({2-[(1s,3s)-3-hydroxycyclobutyl]quinolin-6-yl}methyl)pyrrolidin-3-yl]oxy}-2,3-dihydro-1H-isoindol-2-yl)piperidine-2,6-dione] | 31 | 2.09 | 5.21 | 6.89
COC[C@H]1CC[C@@H](c2ccc3cc(CN4CC[C@H](Oc5ccc6c(c5)CN(C5CCC(=O)NC5=O)C6=O)C4)ccc3n2)CC1 (stereo partly drawn) [3-(1-oxo-5-{[(3S)-1-({2-[(1s,4s)-4-(methoxymethyl)cyclohexyl]quinolin-6-yl}methyl)pyrrolidin-3-yl]oxy}-2,3-dihydro-1H-isoindol-2-yl)piperidine-2,6-dione] | 28.9 | 1.22 | 2.66 | 12.53

— patent US20240067632A1, “WEE1 Degrading Compounds and Uses Thereof” (Bristol-Myers Squibb Company, priority 2022, published 2024)
